Drawing on US20240059689A1, “PURINE DERIVATIVES AS ANTICANCER AGENTS” (Tango Therapeutics, Inc., priority 2021, published 2024), this text covers IC50 for 22 compounds.

SMILES strings stand for the structures. Where two headings read alike, the source gives them in different places. A value given as a limit tells only on which side of the number the result lay.

As a reminder, the IC50 is the concentration at which inhibition is half-maximal.

One experiment concerns the target USP1-UAF1 (Homo sapiens, UniProt O94782). Description: Ubiquitin Rhodamine assay of USP1-UAF1 activity. It counts as biochemical. Here is the method:
Certain compounds of the disclosure were assessed for USP1-UAF1 activity in a Ubiquitin Rhodamine assay as described in Biology Example 1.

The test system of the next experiment is monoubiquitinated PCNA. In words: AlphaLISA assay measuring monoubiquitinated PCNA in MDA-MB-436. To be noted: Homo sapiens, MDA-MB-436, monoubiquitinated PCNA, read-out: Alpha Lisa IC50. It counts as cell-based. The text has this:
Table 1 also indicates IC50 values for exemplary compounds in an AlphaLISA assay measuring monoubiquitinated PCNA in a BRCA1 mutant cell line (MDA-MB-436; column 7).
Background: Bead proximity is the source of the signal in Alpha formats.

In a further experiment the test system is MDA-MB-436. In words: Viability assay, BRCA1 mutant cell line MDA-MB-436. The settings on record: BRCA1 mutant MDA-MB-436, read-out: MDA-MB-436 rel IC50. It counts as cell-based. The text has this: (§1) Table 1 also indicates IC50 values in a viability assay for a non-isogenic pair of BRCA1 mutant (column 5-MDA-MB-436) and BRCA1 WT (column 6—HCC1954) cell lines. These values indicate the effect of treatment with compound on cell survival.

For the next experiment, the system named is HCC1954. In words: Viability assay, BRCA1 WT cell line HCC1954. It counts as cell-based. The settings on record: read-out: HCC1954 rel IC50.
From the text: as §1

Setting [1] is: Homo sapiens, MDA-MB-436, viability.
Setting [2] is: Homo sapiens, HCC1954, viability.

Sequence of USP1-UAF1 (O94782 whole entry): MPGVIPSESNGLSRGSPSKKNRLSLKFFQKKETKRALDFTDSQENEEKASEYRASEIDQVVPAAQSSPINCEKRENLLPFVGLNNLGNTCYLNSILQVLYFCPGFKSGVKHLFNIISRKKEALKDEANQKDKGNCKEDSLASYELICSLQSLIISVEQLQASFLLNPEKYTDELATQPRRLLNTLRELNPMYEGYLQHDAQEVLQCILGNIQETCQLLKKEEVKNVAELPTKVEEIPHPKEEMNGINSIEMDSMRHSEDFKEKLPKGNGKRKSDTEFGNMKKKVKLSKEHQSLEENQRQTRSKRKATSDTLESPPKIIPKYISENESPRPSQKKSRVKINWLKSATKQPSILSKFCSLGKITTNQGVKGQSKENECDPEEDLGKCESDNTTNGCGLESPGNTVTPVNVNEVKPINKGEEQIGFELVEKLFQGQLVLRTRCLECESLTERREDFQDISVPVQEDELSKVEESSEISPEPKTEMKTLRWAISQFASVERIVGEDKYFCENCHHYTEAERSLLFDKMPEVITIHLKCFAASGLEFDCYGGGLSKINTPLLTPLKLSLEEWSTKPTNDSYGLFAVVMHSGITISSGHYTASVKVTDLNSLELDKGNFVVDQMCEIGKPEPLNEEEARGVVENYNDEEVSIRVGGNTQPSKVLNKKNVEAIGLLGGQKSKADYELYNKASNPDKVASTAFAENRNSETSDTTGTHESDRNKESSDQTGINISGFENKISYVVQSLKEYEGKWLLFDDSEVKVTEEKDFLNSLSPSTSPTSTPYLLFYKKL
Sequence of USP1-UAF1 (Q8TAF3 whole entry partner): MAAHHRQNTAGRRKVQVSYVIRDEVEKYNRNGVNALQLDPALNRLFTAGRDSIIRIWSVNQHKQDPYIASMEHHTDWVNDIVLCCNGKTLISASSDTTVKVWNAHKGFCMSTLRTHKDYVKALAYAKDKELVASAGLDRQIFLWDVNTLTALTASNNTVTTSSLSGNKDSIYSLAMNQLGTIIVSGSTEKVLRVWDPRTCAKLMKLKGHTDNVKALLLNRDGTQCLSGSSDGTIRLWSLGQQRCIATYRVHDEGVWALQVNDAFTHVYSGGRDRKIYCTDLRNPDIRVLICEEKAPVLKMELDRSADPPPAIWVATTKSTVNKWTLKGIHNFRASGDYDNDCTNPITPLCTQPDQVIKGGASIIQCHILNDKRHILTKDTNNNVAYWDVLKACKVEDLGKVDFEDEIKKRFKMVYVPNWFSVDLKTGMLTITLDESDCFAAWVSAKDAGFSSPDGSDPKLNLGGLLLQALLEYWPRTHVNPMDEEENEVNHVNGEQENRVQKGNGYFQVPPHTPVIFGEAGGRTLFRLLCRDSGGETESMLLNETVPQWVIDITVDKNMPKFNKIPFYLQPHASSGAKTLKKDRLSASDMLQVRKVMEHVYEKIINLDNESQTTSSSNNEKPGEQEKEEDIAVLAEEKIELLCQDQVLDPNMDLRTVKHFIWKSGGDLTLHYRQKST

`CC(C)c1ccccc1-c1nc(C(N)=O)c2c(n1)n(Cc1ccc(-c3nc(C(F)(F)F)cn3C)cc1)c(=N)n2C` [Example A-41, 8-imino-2-(2-isopropylphenyl)-7-methyl-9-(4-(1-methyl-4-(trifluoromethyl)-1H-imidazol-2-yl)benzyl)-8,9-dihydro-7H-purine-6-carboxamide]: the IC50 against USP1-UAF1 was in the range of 30 to 100 nM; in the experiment on monoubiquitinated PCNA, 250 to 10000 nM; in the experiment on MDA-MB-436 (setting [1]) it was 250 to 10000 nM; in the experiment with HCC1954 (setting [2]), 250 to 10000 nM.
As to `COc1ncnc(C2CC2)c1-c1ncc2c(n1)n([C@@H](C)c1ccc(-c3nc(C(F)(F)F)cn3C)cc1)c(=N)n2C` [Example T-142, 2-(4-cyclopropyl-6-methoxy-pyrimidin-5-yl)-7-methyl-9-[(1S)-1-[4-[1-methyl-4-(trifluoromethyl)imidazol-2-yl]phenyl]ethyl]purin-8-imine], the IC50 at USP1-UAF1 is 100 to 10000 nM; in the experiment on monoubiquitinated PCNA, 100 to 250 nM; with MDA-MB-436 (setting [1]), 100 to 250 nM; with HCC1954 (setting [2]) it was at least 10000 nM.
Regarding `CC(C)c1ccccc1-c1ncc2c(n1)n(Cc1ccc(-c3nc(C(F)(F)F)cn3C3CN(C)C3)cc1)c(=N)n2C` [Example T-099, 2-(2-isopropylphenyl)-7-methyl-9-(4-(1-(1-methylazetidin-3-yl)-4-(trifluoromethyl)-1H-imidazol-2-yl)benzyl)-7H-purin-8(9H)-imine], the concentration for half-maximal inhibition (IC50) at USP1-UAF1 is 100 to 10000 nM; with monoubiquitinated PCNA it was 100 to 250 nM; in the experiment on MDA-MB-436 (setting [1]) it was under 100 nM; with HCC1954 (setting [2]), at least 10000 nM.
Take `CCn1cc(C(F)(F)F)nc1-c1ccc(Cn2c(=N)n(C)c3cnc(-c4ccccc4C(F)(F)F)nc32)cc1` [Example T-063, 9-(4-(1-ethyl-4-(trifluoromethyl)-1H-imidazol-2-yl)benzyl)-7-methyl-2-(2-(trifluoromethyl)phenyl)-7H-purin-8(9H)-imine]: the IC50 was 30 to 100 nM against USP1-UAF1, 100 to 250 nM with monoubiquitinated PCNA, 100 to 250 nM in the experiment with MDA-MB-436 (setting [1]) and at least 10000 nM in the experiment with HCC1954 (setting [2]).
Regarding `CC(C)c1ccccc1-c1ncc2c(n1)n(C[C@H]1CC[C@H](c3nc(C(F)(F)F)cn3C)CC1)c(=N)n2C` [Example T-030], the IC50 at USP1-UAF1 is 100 to 10000 nM; in the experiment on monoubiquitinated PCNA it was under 100 nM; in the experiment on MDA-MB-436 (setting [1]) it was under 100 nM; in the experiment on HCC1954 (setting [2]), 250 to 10000 nM.
Take `CC(C)c1ccccc1-c1ncc2c(n1)n(Cc1ccc(-c3nc(C(F)(F)F)cn3C)cc1F)c(=N)n2C` [Example A-29, 9-(2-fluoro-4-(1-methyl-4-(trifluoromethyl)-1H-imidazol-2-yl)benzyl)-2-(2-isopropylphenyl)-7-methyl-7,9-dihydro-8H-purin-8-imine]: the half-inhibitory concentration (IC50) is under 30 nM at USP1-UAF1, under 100 nM in the experiment on monoubiquitinated PCNA, under 100 nM with MDA-MB-436 (setting [1]) and at least 10000 nM with HCC1954 (setting [2]).
On to `CC(C)c1ccccc1-c1nc(-c2ccccc2C(C)C)c2c(n1)n(Cc1ccc(-c3nc(C(F)(F)F)cn3C)cc1)c(=N)n2C` (single isomer, unassigned) [Example A-22b, 2,6-bis(2-isopropylphenyl)-7-methyl-9-(4-(1-methyl-4-(trifluoromethyl)-1H-imidazol-2-yl)benzyl)-7,9-dihydro-8H-purin-8-imine], for which the IC50 is 30 to 100 nM against USP1-UAF1, 250 to 10000 nM with monoubiquitinated PCNA, 250 to 10000 nM with MDA-MB-436 (setting [1]) and 250 to 10000 nM in the experiment with HCC1954 (setting [2]).
With `COc1nccc(F)c1-c1ncc2c(n1)n(Cc1ccc(-c3nc(C(F)(F)F)cn3C)cc1)c(=N)n2CC(F)(F)F` [Example T-121, 2-(4-fluoro-2-methoxy-3-pyridyl)-9-[[4-[1-methyl-4-(trifluoromethyl)imidazol-2-yl]phenyl]methyl]-7-(2,2,2-trifluoroethyl)purin-8-imine], the IC50 was 30 to 100 nM against USP1-UAF1, 250 to 10000 nM with monoubiquitinated PCNA, 100 to 250 nM in the experiment with MDA-MB-436 (setting [1]) and at least 10000 nM in the experiment on HCC1954 (setting [2]).
In the same order, the values of `COc1ncnc(C2CC2)c1-c1ncc2c(n1)n(Cc1ccc(-c3nc(C(F)(F)F)cn3C)cc1)c(=N)n2C` [Example T-019, 2-(4-cyclopropyl-6-methoxy-pyrimidin-5-yl)-7-methyl-9-[[4-[1-methyl-4-(trifluoromethyl)imidazol-2-yl]phenyl]methyl]purin-8-imine] are 100 to 10000 nM, under 100 nM, 100 to 250 nM and at least 10000 nM.
The corresponding values for `CC(C)c1ccncc1-c1ncc2c(n1)n(Cc1ccc(-c3nc(C(F)(F)F)cn3C)cc1)c(=N)n2C` [Example T-035] are 100 to 10000 nM, 250 to 10000 nM, 250 to 10000 nM and at least 10000 nM.
Take `COn1cc(C(F)(F)F)nc1-c1ccc(Cn2c(=N)n(C)c3cnc(-c4ccccc4C(C)C)nc32)cc1` [Example T-061]: the IC50 on USP1-UAF1 is under 30 nM; with monoubiquitinated PCNA it was 100 to 250 nM; with MDA-MB-436 (setting [1]), 100 to 250 nM; in the experiment with HCC1954 (setting [2]), 250 to 10000 nM.
For `Cn1cc(C(F)(F)F)nc1-c1ccc(Cn2c(=N)n(C)c3cnc(-c4ccccc4Cl)nc32)cc1` [Example B-8, 2-(2-chlorophenyl)-7-methyl-9-(4-(1-methyl-4-(trifluoromethyl)-1H-imidazol-2-yl)benzyl)-7,9-dihydro-8H-purin-8-imine], the 50% inhibitory concentration (IC50) was 30 to 100 nM on USP1-UAF1, 100 to 250 nM in the experiment on monoubiquitinated PCNA, 100 to 250 nM with MDA-MB-436 (setting [1]) and at least 10000 nM in the experiment on HCC1954 (setting [2]).
In the case of `CC(C)c1ccccc1-c1ncc2c(n1)n(C(C)c1ccc(-c3nc(Cl)cn3C)cc1)c(=N)n2C` (single isomer, unassigned) [Example A-9c, 9-(1-(4-(4-chloro-1-methyl-1H-imidazol-2-yl)phenyl)ethyl)-2-(2-isopropylphenyl)-7-methyl-7,9-dihydro-8H-purin-8-imine], the IC50 on USP1-UAF1 is 30 to 100 nM; in the experiment with monoubiquitinated PCNA, 100 to 250 nM; in the experiment on MDA-MB-436 (viability), 250 to 10000 nM; with HCC1954 (viability), at least 10000 nM.
Regarding `Cn1cc(C(F)(F)F)nc1-c1ccc(Cn2c(=N)n(C)c3cnc(-c4cccc(F)c4OC(F)F)nc32)cc1` [Example T-027, 2-[2-(difluoromethoxy)-3-fluoro-phenyl]-7-methyl-9-[[4-[1-methyl-4-(trifluoromethyl)imidazol-2-yl]phenyl]methyl]purin-8-imine], the IC50 lay within 30 to 100 nM on USP1-UAF1, 250 to 10000 nM with monoubiquitinated PCNA, 250 to 10000 nM with MDA-MB-436 (setting [1]) and 250 to 10000 nM with HCC1954 (setting [2]).
As to `COc1cc(C)n(-c2ccc(Cn3c(=N)n(C)c4cnc(-c5ccccc5C5CC5)nc43)cc2)n1` [Example T-020], the IC50 at USP1-UAF1 fell in the range of 100 to 10000 nM; with monoubiquitinated PCNA, 250 to 10000 nM; in the experiment with MDA-MB-436 (setting [1]) it was 250 to 10000 nM; in the experiment on HCC1954 (setting [2]), 250 to 10000 nM.
Consider `COc1nsc(OC)c1-c1ncc2c(n1)n(Cc1ccc(-c3nc(C(F)(F)F)cn3C)cc1)c(=N)n2C` [Example T-052], for which the concentration for half-maximal inhibition (IC50) lay in the range of 30 to 100 nM on USP1-UAF1, 100 to 250 nM with monoubiquitinated PCNA, 100 to 250 nM with MDA-MB-436 (setting [1]) and 250 to 10000 nM in the experiment on HCC1954 (setting [2]).
As for `Cc1nc(-c2ccccc2Cl)nc2c1n(C)c(=N)n2Cc1ccc(-c2nc(C(F)(F)F)cn2C)cc1` (single isomer, unassigned) [Example A-15a, 2-(2-chlorophenyl)-6,7-dimethyl-9-(4-(1-methyl-4-(trifluoromethyl)-1H-imidazol-2-yl)benzyl)-7,9-dihydro-8H-purin-8-imine], the IC50 against USP1-UAF1 is 30 to 100 nM; in the experiment on monoubiquitinated PCNA it was 250 to 10000 nM; with MDA-MB-436 (setting [1]) it was 250 to 10000 nM; in the experiment on HCC1954 (setting [2]) it was at least 10000 nM.
On to `CC(C)c1ccccc1-c1ncc2c(n1)n(Cc1ccc(-c3nc(C(F)(F)F)cn3C)cc1O)c(=N)n2C` [Example T-081], for which the 50% inhibitory concentration (IC50) is under 30 nM against USP1-UAF1, under 100 nM in the experiment with monoubiquitinated PCNA, 100 to 250 nM with MDA-MB-436 (setting [1]) and at least 10000 nM in the experiment with HCC1954 (setting [2]).
The corresponding values for `CC(C)c1ccccc1-c1nc(N(C)C)c2c(n1)n(Cc1ccc(-c3nc(C(F)(F)F)cn3C)cc1)c(=N)n2C` [Example A-17, 8-imino-2-(2-isopropylphenyl)-N,N,7-trimethyl-9-(4-(1-methyl-4-(trifluoromethyl)-1H-imidazol-2-yl)benzyl)-8,9-dihydro-7H-purin-6-amine] are 100 to 10000 nM, 250 to 10000 nM, 250 to 10000 nM and 250 to 10000 nM.
In the same order, the values of `CCn1c(=N)n(Cc2ccc(-c3nc(C(F)(F)F)cn3C)cc2)c2nc(-c3ccccc3C(C)C)ncc21` [Example A-14, 7-ethyl-2-(2-isopropylphenyl)-9-(4-(1-methyl-4-(trifluoromethyl)-1H-imidazol-2-yl)benzyl)-7,9-dihydro-8H-purin-8-imine] are under 30 nM, under 100 nM, under 100 nM and 250 to 10000 nM.
The corresponding values for `CC(C)n1cc(C(F)(F)F)nc1-c1ccc(Cn2c(=N)n(C)c3cnc(-c4cccnc4OC(F)F)nc32)cc1` [Example T-051, 2-[2-(difluoromethoxy)-3-pyridyl]-9-[[4-[1-isopropyl-4-(trifluoromethyl)imidazol-2-yl]phenyl]methyl]-7-methyl-purin-8-imine] are 100 to 10000 nM, 250 to 10000 nM, 250 to 10000 nM and at least 10000 nM.
For the compound `Cn1cc(C(F)(F)F)nc1-c1ccc(Cn2c(=N)n(C)c3cnc(-c4ccccc4)nc32)cc1` [Example B-3, 7-methyl-9-(4-(1-methyl-4-(trifluoromethyl)-1H-imidazol-2-yl)benzyl)-2-phenyl-7,9-dihydro-8H-purin-8-imine], the half-maximal inhibitory concentration (IC50) against USP1-UAF1 was in the range of 100 to 10000 nM; in the experiment on monoubiquitinated PCNA it was 250 to 10000 nM; in the experiment on MDA-MB-436 (setting [1]) it was 250 to 10000 nM; in the experiment with HCC1954 (setting [2]), 250 to 10000 nM.
